Experiments:
SF-295 (CNS cancer) = assay: NCI-60 SRB cytotoxicity screen; assay type: cell-based; conditions: Homo sapiens; SF-295, single dose 10 μM; read-out: growth inhibition (GI%)
SNB-75 (CNS cancer) = assay: NCI-60 SRB cytotoxicity screen; assay type: cell-based; conditions: Homo sapiens, SNB-75, SNB-75, single dose 10 μM; read-out: growth inhibition (GI%)
HT29 (colon cancer) = assay: NCI-60 SRB cytotoxicity screen; assay type: cell-based; conditions: Homo sapiens, HT-29; HT29, single dose 10 μM; read-out: growth inhibition (GI%)
M14 (melanoma) = assay: NCI-60 SRB cytotoxicity screen; assay type: cell-based; conditions: Homo sapiens; M14, single dose 10 μM; read-out: growth inhibition (GI%)
[1] = tested on: NCI-H460 (non-small cell lung cancer); assay: NCI-60 SRB cytotoxicity screen; assay type: cell-based; conditions: Homo sapiens; NCI-H460, single dose 10 μM; read-out: growth inhibition (GI%)
OVCAR-5 (ovarian cancer) = assay: NCI-60 SRB cytotoxicity screen; assay type: cell-based; conditions: Homo sapiens; OVCAR-5, single dose 10 μM; read-out: growth inhibition (GI%)
[2] = tested on: EKVX (non-small cell lung cancer); assay: NCI-60 SRB cytotoxicity screen; assay type: cell-based; conditions: Homo sapiens, single dose 10 μM, read-out: growth inhibition (GI%)
CCRF-CEM (leukemia) = assay: NCI-60 SRB cytotoxicity screen; assay type: cell-based; conditions: Homo sapiens, single dose 10 μM, read-out: growth inhibition (GI%)
MOLT-4 (leukemia) = assay: NCI-60 SRB cytotoxicity screen; assay type: cell-based; conditions: Homo sapiens; MOLT-4, single dose 10 μM; read-out: growth inhibition (GI%)
[3] = tested on: NCI-H226 (non-small cell lung cancer); assay: NCI-60 SRB cytotoxicity screen; assay type: cell-based; conditions: Homo sapiens; NCI-H226, single dose 10 μM; read-out: growth inhibition (GI%)
A498 (renal cancer) = assay: NCI-60 SRB cytotoxicity screen; assay type: cell-based; conditions: Homo sapiens; A498, single dose 10 μM; read-out: growth inhibition (GI%)
UACC-257 (melanoma) = assay: NCI-60 SRB cytotoxicity screen; assay type: cell-based; conditions: Homo sapiens; UACC-257, single dose 10 μM; read-out: growth inhibition (GI%)
TK-10 (renal cancer) = assay: NCI-60 SRB cytotoxicity screen; assay type: cell-based; conditions: Homo sapiens; TK-10, single dose 10 μM; read-out: growth inhibition (GI%)
SW-620 (colon cancer) = assay: NCI-60 SRB cytotoxicity screen; assay type: cell-based; conditions: Homo sapiens; SW-620, single dose 10 μM; read-out: growth inhibition (GI%)
MDA-MB-435 (melanoma) = assay: NCI-60 SRB cytotoxicity screen; assay type: cell-based; conditions: Homo sapiens, MDA-MB-435, read-out: growth inhibition (GI%);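 note: growth inhibition in percent at a single 10 µM dose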
[4] = tested on: A549/ATCC (non-small cell lung cancer); assay: NCI-60 SRB cytotoxicity screen; assay type: cell-based; conditions: Homo sapiens, single dose 10 μM, read-out: growth inhibition (GI%)
U251 (CNS cancer) = assay: NCI-60 SRB cytotoxicity screen; assay type: cell-based; conditions: Homo sapiens, U-251; U251, single dose 10 μM; read-out: growth inhibition (GI%)
SN12C (renal cancer) = assay: NCI-60 SRB cytotoxicity screen; assay type: cell-based; conditions: Homo sapiens, single dose 10 μM, read-out: growth inhibition (GI%)
CAKI-1 (renal cancer) = assay: NCI-60 SRB cytotoxicity screen; assay type: cell-based; conditions: Homo sapiens; CAKI-1, single dose 10 μM; read-out: growth inhibition (GI%)
UO-31 (renal cancer) = assay: NCI-60 SRB cytotoxicity screen; assay type: cell-based; conditions: Homo sapiens; UO-31, single dose 10 μM; read-out: growth inhibition (GI%)
[5] = tested on: NCI-H322M (non-small cell lung cancer); assay: NCI-60 SRB cytotoxicity screen; assay type: cell-based; conditions: Homo sapiens, single dose 10 μM, read-out: growth inhibition (GI%)
ACHN (renal cancer) = assay: NCI-60 SRB cytotoxicity screen; assay type: cell-based; conditions: Homo sapiens, single dose 10 μM, read-out: growth inhibition (GI%)
SF-539 (CNS cancer) = assay: NCI-60 SRB cytotoxicity screen; assay type: cell-based; conditions: Homo sapiens; SF-539, single dose 10 μM; read-out: growth inhibition (GI%)
[6] = tested on: HOP-92 (non-small cell lung cancer); assay: NCI-60 SRB cytotoxicity screen; assay type: cell-based; conditions: Homo sapiens; HOP-92, single dose 10 μM; read-out: growth inhibition (GI%)
PC-3 (prostate cancer) = assay: NCI-60 SRB cytotoxicity screen; assay type: cell-based; conditions: PC-3, single dose 10 μM; read-out: growth inhibition (GI%)
[7] = tested on: MDA-MB-231/ATCC (breast cancer); assay: NCI-60 SRB cytotoxicity screen; assay type: cell-based; conditions: Homo sapiens, MDA-MB-231, read-out: growth inhibition (GI%);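 note: growth inhibition in percent at a single 10 µM dose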
OVCAR-8 (ovarian cancer) = assay: NCI-60 SRB cytotoxicity screen; assay type: cell-based; conditions: Homo sapiens; OVCAR-8, single dose 10 μM; read-out: growth inhibition (GI%)
MALME-3M (melanoma) = assay: NCI-60 SRB cytotoxicity screen; assay type: cell-based; conditions: Homo sapiens, single dose 10 μM, read-out: growth inhibition (GI%)
HCT-15 (colon cancer) = assay: NCI-60 SRB cytotoxicity screen; assay type: cell-based; conditions: Homo sapiens; HCT-15, single dose 10 μM; read-out: growth inhibition (GI%)
LOX IMVI (melanoma) = assay: NCI-60 SRB cytotoxicity screen; assay type: cell-based; conditions: Homo sapiens, single dose 10 μM, read-out: growth inhibition (GI%)
SK-MEL-2 (melanoma) = assay: NCI-60 SRB cytotoxicity screen; assay type: cell-based; conditions: Homo sapiens; SK-MEL-2, single dose 10 μM; read-out: growth inhibition (GI%)
[8] = tested on: NCI/ADR-RES (ovarian cancer); assay: NCI-60 SRB cytotoxicity screen; assay type: cell-based; conditions: Homo sapiens, single dose 10 μM, read-out: growth inhibition (GI%)
SK-OV-3 (ovarian cancer) = assay: NCI-60 SRB cytotoxicity screen; assay type: cell-based; conditions: Homo sapiens; SK-OV-3, single dose 10 μM; read-out: growth inhibition (GI%)
786-0 (renal cancer) = assay: NCI-60 SRB cytotoxicity screen; assay type: cell-based; conditions: Homo sapiens; 786-0, single dose 10 μM; read-out: growth inhibition (GI%)
OVCAR-4 (ovarian cancer) = assay: NCI-60 SRB cytotoxicity screen; assay type: cell-based; conditions: Homo sapiens; OVCAR-4, single dose 10 μM; read-out: growth inhibition (GI%)

Row | SMILES | inhibition at 10 µM (SF-295 (CNS cancer)) [%] | inhibition at 10 µM (SNB-75 (CNS cancer)) [%] | inhibition at 10 µM (HT29 (colon cancer)) [%] | inhibition at 10 µM (M14 (melanoma)) [%] | melting point [°C] | inhibition at 10 µM [1] [%] | inhibition at 10 µM (OVCAR-5 (ovarian cancer)) [%] | inhibition at 10 µM [2] [%] | inhibition at 10 µM (CCRF-CEM (leukemia)) [%] | inhibition at 10 µM (MOLT-4 (leukemia)) [%] | inhibition at 10 µM [3] [%] | inhibition at 10 µM (A498 (renal cancer)) [%] | inhibition at 10 µM (UACC-257 (melanoma)) [%] | inhibition at 10 µM (TK-10 (renal cancer)) [%] | inhibition at 10 µM (SW-620 (colon cancer)) [%] | inhibition at 10 µM (MDA-MB-435 (melanoma)) [%] | inhibition at 10 µM [4] [%] | inhibition at 10 µM (U251 (CNS cancer)) [%] | inhibition at 10 µM (SN12C (renal cancer)) [%] | inhibition at 10 µM (CAKI-1 (renal cancer)) [%] | further results
1 | CCc1cccc2cc(-c3cc(-c4ccc(F)cc4)[nH]c(=S)c3C#N)c(Cl)nc12 [Compound 5d, 4-(2-Chloro-8-ethylquinolin-3-yl)-6-(4-fluorophenyl)-2-thioxo-1,2-dihydropyridine-3-carbonitrile] | 12.3 | 39.1 | < 10 | < 10 | 235 to 237 | < 10 | < 10 | 19.6 | < 10 | 26.8 | 25.9 | < 10 | < 10 | < 10 | < 10 | < 10 | < 10 | < 10 | < 10 | 31.1 | inhibition at 10 µM (UO-31 (renal cancer)): 40.1%; inhibition at 10 µM [5]: 12.4%; inhibition at 10 µM (ACHN (renal cancer)): < 10%; inhibition at 10 µM (SF-539 (CNS cancer)): < 10%; inhibition at 10 µM [6]: 11.4%; inhibition at 10 µM (PC-3 (prostate cancer)): 4.57%; inhibition at 10 µM [7]: 31.2%; inhibition at 10 µM (OVCAR-8 (ovarian cancer)): < 10%; inhibition at 10 µM (MALME-3M (melanoma)): < 10%; inhibition at 10 µM (HCT-15 (colon cancer)): 14.8%; inhibition at 10 µM (LOX IMVI (melanoma)): 12.4%; inhibition at 10 µM (SK-MEL-2 (melanoma)): < 10%; inhibition at 10 µM [8]: < 10%; inhibition at 10 µM (SK-OV-3 (ovarian cancer)): 20.9%; inhibition at 10 µM (786-0 (renal cancer)): < 10%; inhibition at 10 µM (OVCAR-4 (ovarian cancer)): 13.3%
2 | CCc1cccc2cc(C3C=C(c4ccc(OC)c(OC)c4)NC(=S)N3)c(Cl)nc12 (stereo not drawn) [Compound 6b, 4-(2-Chloro-8-ethylquinolin-3-yl)-6-(3,4-dimethoxyphenyl)-3,4-dihydropyrimidine-2(1H)-thione] | < 10 | < 10 | < 10 | < 10 | 237 to 239 | < 10 | < 10 | < 10 | 11 | 53.3 | 15.4 | < 10 | < 10 | < 10 | < 10 | < 10 | < 10 | < 10 | < 10 | 30.2 | inhibition at 10 µM (UO-31 (renal cancer)): 37.2%; inhibition at 10 µM [5]: < 10%; inhibition at 10 µM (ACHN (renal cancer)): < 10%; inhibition at 10 µM (SF-539 (CNS cancer)): < 10%; inhibition at 10 µM [6]: < 10%; inhibition at 10 µM (PC-3 (prostate cancer)): < 10%; inhibition at 10 µM [7]: < 10%; inhibition at 10 µM (OVCAR-8 (ovarian cancer)): < 10%; inhibition at 10 µM (MALME-3M (melanoma)): < 10%; inhibition at 10 µM (HCT-15 (colon cancer)): < 10%; inhibition at 10 µM (LOX IMVI (melanoma)): < 10%; inhibition at 10 µM (SK-MEL-2 (melanoma)): < 10%; inhibition at 10 µM [8]: 11.1%; inhibition at 10 µM (SK-OV-3 (ovarian cancer)): < 10%; inhibition at 10 µM (786-0 (renal cancer)): < 10%; inhibition at 10 µM (OVCAR-4 (ovarian cancer)): 19.9%
3 | CCc1cccc2cc(C3C=C(c4cc(OC)c(OC)c(OC)c4)NC(=S)N3)c(Cl)nc12 (stereo not drawn) [Compound 6c, 4-(2-Chloro-8-ethylquinolin-3-yl)-6-(3,4,5-trimethoxyphenyl)-3,4-dihydropyrimidine-2(1H)-thione] | 30 | 23.2 | 36.4 | 30.1 | 235 to 237 | 30 | < 10 | 37.9 | 32.9 | 67.7 | 58 | 11.6 | 13.1 | 12.6 | 13.4 | 43.5 | 26.3 | 26.6 | 21.7 | 64.1 | inhibition at 10 µM (UO-31 (renal cancer)): 67.7%; inhibition at 10 µM [5]: 18.3%; inhibition at 10 µM (ACHN (renal cancer)): 24.4%; inhibition at 10 µM (SF-539 (CNS cancer)): 30.3%; inhibition at 10 µM [6]: 28.3%; inhibition at 10 µM (PC-3 (prostate cancer)): 46.2%; inhibition at 10 µM [7]: 46.1%; inhibition at 10 µM (OVCAR-8 (ovarian cancer)): 12.2%; inhibition at 10 µM (MALME-3M (melanoma)): < 10%; inhibition at 10 µM (HCT-15 (colon cancer)): 30.9%; inhibition at 10 µM (LOX IMVI (melanoma)): 33.3%; inhibition at 10 µM (SK-MEL-2 (melanoma)): 10.2%; inhibition at 10 µM [8]: 34%; inhibition at 10 µM (SK-OV-3 (ovarian cancer)): < 10%; inhibition at 10 µM (786-0 (renal cancer)): 18.2%; inhibition at 10 µM (OVCAR-4 (ovarian cancer)): 48.9%
